Results from publication PMC4335872, “Pharmacokinetic-Pharmacodynamic Analysis of Spiroindolone Analogs and KAE609 in a Murine Malaria Model” (Antimicrobial Agents and Chemotherapy, 2015).
Where “and” joins values, the source holds several entries; their conditions need not be identical. Equal entries are not always repeated. Where two headings read alike, the source gives them in different places.

Tests used:
[1] = test system: P. berghei GFP ANKA PbGFPCON; experiment: In vitro (ex vivo) P. berghei maturation assay; assay type: cell-based, Plasmodium berghei
Method: For the in vitro (ex vivo) P. berghei maturation assays ([38]), heparinized blood from infected mice (P. berghei GFP ANKA malaria strain PbGFPCON, a donation from A. P. Waters and C. J. Janse, Leiden University, Leiden, the Netherlands) ([39]) was washed with 9 ml of hypoxanthine-free culture medium and diluted with hypoxanthine-free culture medium and red blood cells (RBCs) from uninfected mice to a hematocrit of 5% and a parasitemia of 0.3%. Serial compound dilutions were prepared in DMSO and distributed as described above. The infected erythrocytes (0.3% final parasitemia and 2.5% final hematocrit) were added into the wells. After the plates were incubated for 16 h, 0.25 μCi of [^3H]hypoxanthine was added per well, and the plates were incubated for an additional 8 h. The parasites were harvested, and the in vitro (ex vivo) P. berghei IC50, IC90, and IC99 values were determined as described above.

[2] = In vivo PK after single p.o. and i.v. dosing in CD-1 mice; design: species or system female CD-1 mice; conditions: for AUC(0-t): read-out: AUC0–24
Method: The Institutional Animal Care and Use Committee (IACUC) of the Novartis Institute for Tropical Diseases (NITD), registered with the Agri-Food and Veterinary authority (AVA), Government of Singapore, reviewed and approved all animal experimental protocols. […] The mice were allowed to acclimate before the initiation of the experiments. Feed and water were given ad libitum. […] The blood samples from the mice were collected at 0.02 (for i.v. only), 0.08, 0.25, 0.5, 1, 2, 4, 8, 16, and 24 h postdosing. The dose proportionality studies were conducted with KAE609. […] Additional samples were collected at 32 h and 48 h postdose for the 1- and 5-mg/kg dose groups and up to 72 h postdose for the 100-mg/kg dose group. Groups of three mice were used for each time point. Blood was centrifuged at 13,000 rpm for 7 min at 4°C, and plasma was harvested and stored at -20°C until analysis. […] After vortexing and centrifuging the mixture, the supernatant was removed and 5 μl of sample analyzed. Analyte quantitation was performed by high-performance liquid chromatography coupled with tandem mass spectrometry (LC-MS/MS). […] Instrument control and data acquisition were performed using the Applied Biosystems software Analyst 1.4.2. […] Multiple-reaction monitoring (MRM) was combined with optimized MS parameters to maximize detection specificity and sensitivity. The most intense MRM transitions [338.3/295.1 for (+)-1, 370.1/327.0 for (+)-2, 370.0/326.9 for (+)-3, 354.1/310.8 for (+)-4, 354.1/311.2 for (+)-5, 372.1/329.1 for (+)-6, 388.0/331.8 for (+)-7, 372.1/316.1 for (-)-6, and 388/332 for (-)-7] were used for quantitation. Most compounds were analyzed using electrospray ionization in the negative mode, except (+)-1, which was analyzed using positive mode. The recovery of the compounds from plasma was good and consistent across the concentration range studied. The lower limits of quantification for different compounds ranged from 1.3 to 70 ng/ml in plasma. A calibration curve was freshly prepared and analyzed with every set of study samples. Intraday variability was established with triplicate quality control samples at three concentration levels. The results were accepted if relative standard deviation was <15%. The mean values of the compound concentrations in plasma were obtained from three animals at each time point and plotted against time to generate concentration-time profiles. […] The oral bioavailability (F) was calculated as the ratio between the area under the concentration-time curve from 0 to infinity (AUC0-∞) following oral administration and the AUC0-∞ following intravenous administration corrected for dose (F = […].).

[3] = test system: P. berghei GFP ANKA malaria strain PbGFPCON; experiment: Dose-response efficacy in the P. berghei malaria mouse model; assay type: in vivo, female NMRI mice; conditions: for Hill slope: dose vs parasitemia model; for Pmax (maximum parasitemia) / Pmin (minimum parasitemia): sigmoid dose-response model, single oral doses 24 h postinfection; for Pmax (maximum parasitemia) / Pmin (minimum parasitemia) / ED90 (effective dose causing a 90% reduction in parasitemia): parasitemia 72 h postinfection; for ED90 (effective dose causing a 90% reduction in parasitemia): single oral dose 24 h postinfection
Excerpt: All in vivo studies conducted at the Swiss Tropical and Public Health Institute (TPH) adhered to local and national regulations of laboratory animal welfare in Switzerland (permission no. 1731). For in vivo efficacy, female (specific-pathogen-free) […] (NMRI) mice were obtained from Janvier, Le Genest-Saint-Isle, France. Only mice without visible signs of disease were used for the study. Standard laboratory conditions were adopted for husbandry. In vivo antimalarial activity was assessed using groups of five female NMRI mice (20 to 22 g) intravenously infected on day zero with 2 × 10^7 erythrocytes parasitized with P. berghei GFP ANKA malaria strain PbGFPCON (a donation from A. P. Waters and C. J. Janse, Leiden University) ([39]). Untreated control mice typically died between day six and day seven postinfection. Experimental compounds were formulated in 10% ethanol, 30% PEG 400, and 60% of 10% vitamin E TPGS and were administered orally in a volume of 10 ml/kg. Dose-response efficacy studies were conducted for each spiroindolone analog. Doses of 2.5, 5, 10, 30, and 100 mg/kg were administered to groups of 5 mice each as a single dose at 24 h postinfection. Parasitemia, expressed as parasitized red blood cells (pRBCs) of >100 RBCs, was determined 72 h postinfection using standard flow cytometry techniques ([39]).
Data analysis was done using nonlinear mixed-effect modeling (NONMEM version VI 2.0), which analyzed the PD data from multiple dose groups obtained simultaneously from different experiments. Within NONMEM, first-order conditional estimation (FOCE) was the method used ([40]). The log-transformed dose and level of parasitemia were used for analysis. For each compound, a dose-response model was built, and the ED90 (effective dose lowering 90% of parasitemia) values were determined using equation 1 ([41]), where P is the parasitemia measured at any given dose, Pmax is the maximum level of parasitemia, Pmin is the minimum level of parasitemia, EZ50 is the dose required to produce 50% of the maximal effect, s is the Hill slope describing the steepness of the curve, and x is the dose (in mg/kg). 1 P=Pmin +{[Pmax−Pmin]/[1+10^(logEZ50−log x)×s]}

[4] = Intrinsic clearance in mouse liver microsomes; assay type: in vitro ADME; conditions: per mg protein
Excerpt: page 5: Running title: PreclinicalPK -PD of antimalarials 73 to high through put form at using in- house standard assa y protocols that are described in the 74 literature. 75 (a)HT-Equilibrium solubilit y at pH 6.8( 1); (b)Parallel Artificial Membrane P ermeability Assa y 76 expressed in % fraction absorbed (FA) ( 2,3 ); (c)Apparent permeability from apical to […] 78 tested; (d)intrinsic clearance in mouse liver micro somes ex pressed as µ L/ min/mg protein, in 79 the presen ce of liver enzym es ( 6); (e)Mous e plasm a protein binding using rapid equilibrium […] 81 82 83 84 85 86 87 88 89 90 91 92 93 94 95 96 97 98 5

[5] = oral 1.5–105 mg/kg, CD-1 mouse, power regression model
[6] = single oral dose 25 mg/kg, CD-1 mice

SMILES: C[C@H]1Cc2c([nH]c3cc(Cl)c(F)cc23)[C@@]2(N1)C(=O)Nc1ccc(Cl)cc12 [(+)-7 (KAE609)]
- Threshold (TRE), 2× the P. berghei IC99 [1]: 123 nM and 48 ng/ml
- IC50 ([1]; Plasmodium berghei, read-out: IC50 against P. berghei in vitro): 0.01 µg/mL
- IC50 ([1]; Plasmodium berghei, 16 h + 8 h incubation, read-out: IC50 (mean ± SD) for P. berghei GFP ANKA PbGFPCON (n = 3)): 0.026 ± 0.014 µM
- IC99 in the ex vivo P. berghei maturation assay ([1]; four-parametric logistic fit, Bayesian hierarchical model): 61.6 nM
- Vd ([2]; female, mouse, plasma, iv, i.v. 5 mg/kg, CD-1 mice, read-out: Vss): 2.1 L/kg
- half-life ([2]; female, mouse, plasma, iv, i.v. 5 mg/kg, CD-1 mice, read-out: t1/2 (i.v.) (converted)): 3.4 h
- AUC(0-t) ([2]; female, mouse, plasma, oral 1.5 mg/kg, CD-1 mice, HCl/Solutol HS15/citrate pH 3 formulation): 1000 ng·h/mL
- Cmax ([2]; female, mouse, plasma, oral 1.5 mg/kg, CD-1 mice, HCl/Solutol HS15/citrate pH 3 formulation, read-out: Cmax): 100 ng/mL
- bioavailability ([2]; female, mouse, plasma, oral 1.5 mg/kg, CD-1 mice, HCl/Solutol HS15/citrate pH 3 formulation, read-out: F): 44%
- Tmax ([2]; female, mouse, plasma, oral 1.5 mg/kg, CD-1 mice, HCl/Solutol HS15/citrate pH 3 formulation, read-out: Tmax): 1 h
- half-life ([2]; female, mouse, plasma, oral 1.5 mg/kg, CD-1 mice, HCl/Solutol HS15/citrate pH 3 formulation, read-out: t1/2 (oral) (converted)): 8.7 h
- AUC(0-t) ([2]; female, mouse, plasma, oral 5.6 mg/kg, CD-1 mice, HCl/Solutol HS15/citrate pH 3 formulation): 2600 ng·h/mL
- Cmax ([2]; female, mouse, plasma, oral 5.6 mg/kg, CD-1 mice, HCl/Solutol HS15/citrate pH 3 formulation, read-out: Cmax): 250 ng/mL
- bioavailability ([2]; female, mouse, plasma, oral 5.6 mg/kg, CD-1 mice, HCl/Solutol HS15/citrate pH 3 formulation, read-out: F): 32%
- Tmax ([2]; female, mouse, plasma, oral 5.6 mg/kg, CD-1 mice, HCl/Solutol HS15/citrate pH 3 formulation, read-out: Tmax): 2 h
- half-life ([2]; female, mouse, plasma, oral 5.6 mg/kg, CD-1 mice, HCl/Solutol HS15/citrate pH 3 formulation, read-out: t1/2 (oral) (converted)): 7.5 h
- bioavailability ([2]; female, mouse, plasma, oral 25 mg/kg vs i.v. 5 mg/kg, CD-1 mice, read-out: F (oral bioavailability)): 100%
- AUC(0-t) ([2]; female, mouse, plasma, oral 105 mg/kg, CD-1 mice, HCl/Solutol HS15/citrate pH 3 formulation): 187000 ng·h/mL
- Cmax ([2]; female, mouse, plasma, oral 105 mg/kg, CD-1 mice, HCl/Solutol HS15/citrate pH 3 formulation, read-out: Cmax): 10800 ng/mL
- bioavailability ([2]; female, mouse, plasma, oral 105 mg/kg, CD-1 mice, HCl/Solutol HS15/citrate pH 3 formulation, read-out: F): 100%
- Tmax ([2]; female, mouse, plasma, oral 105 mg/kg, CD-1 mice, HCl/Solutol HS15/citrate pH 3 formulation, read-out: Tmax): 24 h
- half-life ([2]; female, mouse, plasma, oral 105 mg/kg, CD-1 mice, HCl/Solutol HS15/citrate pH 3 formulation, read-out: t1/2 (oral) (converted)): 9.4 h
- AUC(0-t) ([2]; female, mouse, plasma, single oral dose 25 mg/kg, CD-1 mice): 43300 ng·h/mL
- Tmax ([2]; female, mouse, plasma, single oral dose 25 mg/kg, CD-1 mice, read-out: Tmax): 1 h
- half-life ([2]; female, mouse, plasma, single oral dose 25 mg/kg, CD-1 mice, read-out: t1/2 (oral) (converted)): 10 h
- Cmax ([2]; female, mouse, single oral dose 25 mg/kg, CD-1 mice, plasma, read-out: Cmax): 3600 ng/mL
- CL ([2]; i.v. 5 mg/kg, CD-1 mice): 9.7 mL/min/kg
- Dose linearity ([2]; oral 1.5–105 mg/kg, CD-1 mouse): nonlinear behavior
- Slope, log dose vs log AUC0-24 (dose proportionality) [2, 5]: 1.30
- Slope, log dose vs log Cmax (dose proportionality) [2, 5]: 1.18
- Complete cure (>30 days survival) ([3]; data not shown): complete cure
- Hill slope [3]: −2.73
- Pmax (maximum parasitemia) [3]: 33.88
- Pmin (minimum parasitemia) [3]: 0.29
- ED90 (effective dose causing a 90% reduction in parasitemia) [3]: 5.6 mg/kg
- microsomal CLint ([4]; mouse, liver microsomes, read-out: Hepatic CLint in mouse liver microsomes): 28 µL/min/mg

SMILES: C[C@H]1Cc2c([nH]c3cc(F)c(F)cc23)[C@@]2(N1)C(=O)Nc1ccc(Cl)cc12 [(+)-6]
- IC50 ([1]; 16 h + 8 h incubation, read-out: IC50 (mean ± SD) for P. berghei GFP ANKA PbGFPCON (n = 3)): 0.0075 ± 0.0025 µM
- CL ([2]; i.v. 5 mg/kg, CD-1 mice): 8.5 mL/min/kg
- Vss ([2]; i.v. 5 mg/kg, CD-1 mice): 1.6 L/kg
- t1/2 (i.v.) ([2]; i.v. 5 mg/kg, CD-1 mice): 2.9 h
- F (oral bioavailability) ([2]; oral 25 mg/kg vs i.v. 5 mg/kg, CD-1 mice): 53%
- AUC0–24 [2, 6]: 26800 ng·h/mL
- Tmax [2, 6]: 2 h
- t1/2 (oral) [2, 6]: 3.2 h
- Cmax ([2]; single oral dose 25 mg/kg, CD-1 mice, plasma): 3100 ng/mL
- Hill slope [3]: −2.03
- Pmax (maximum parasitemia) [3]: 32.36
- Pmin (minimum parasitemia) [3]: 0.09
- ED90 (effective dose causing a 90% reduction in parasitemia) [3]: 17.3 mg/kg
- Hepatic CLint in mouse liver microsomes [4]: 41 µL/min/mg
